A short description of data set [1]: Inhibition of rapid delayed inward rectifying potassium current (IKr) measured using manual patch clamp assay.
Data set [2] deals with Potassium voltage-gated channel subfamily H member 2 (Homo sapiens, UniProt Q12809). As to the kind of experiment: Inhibition of rapid delayed inward rectifying potassium current (IKr) measured using manual patch clamp assay. (In general: The patch-clamp technique gives a direct electrical read-out from membranes.)
Chain of Potassium voltage-gated channel subfamily H member 2 (Q12809 whole entry): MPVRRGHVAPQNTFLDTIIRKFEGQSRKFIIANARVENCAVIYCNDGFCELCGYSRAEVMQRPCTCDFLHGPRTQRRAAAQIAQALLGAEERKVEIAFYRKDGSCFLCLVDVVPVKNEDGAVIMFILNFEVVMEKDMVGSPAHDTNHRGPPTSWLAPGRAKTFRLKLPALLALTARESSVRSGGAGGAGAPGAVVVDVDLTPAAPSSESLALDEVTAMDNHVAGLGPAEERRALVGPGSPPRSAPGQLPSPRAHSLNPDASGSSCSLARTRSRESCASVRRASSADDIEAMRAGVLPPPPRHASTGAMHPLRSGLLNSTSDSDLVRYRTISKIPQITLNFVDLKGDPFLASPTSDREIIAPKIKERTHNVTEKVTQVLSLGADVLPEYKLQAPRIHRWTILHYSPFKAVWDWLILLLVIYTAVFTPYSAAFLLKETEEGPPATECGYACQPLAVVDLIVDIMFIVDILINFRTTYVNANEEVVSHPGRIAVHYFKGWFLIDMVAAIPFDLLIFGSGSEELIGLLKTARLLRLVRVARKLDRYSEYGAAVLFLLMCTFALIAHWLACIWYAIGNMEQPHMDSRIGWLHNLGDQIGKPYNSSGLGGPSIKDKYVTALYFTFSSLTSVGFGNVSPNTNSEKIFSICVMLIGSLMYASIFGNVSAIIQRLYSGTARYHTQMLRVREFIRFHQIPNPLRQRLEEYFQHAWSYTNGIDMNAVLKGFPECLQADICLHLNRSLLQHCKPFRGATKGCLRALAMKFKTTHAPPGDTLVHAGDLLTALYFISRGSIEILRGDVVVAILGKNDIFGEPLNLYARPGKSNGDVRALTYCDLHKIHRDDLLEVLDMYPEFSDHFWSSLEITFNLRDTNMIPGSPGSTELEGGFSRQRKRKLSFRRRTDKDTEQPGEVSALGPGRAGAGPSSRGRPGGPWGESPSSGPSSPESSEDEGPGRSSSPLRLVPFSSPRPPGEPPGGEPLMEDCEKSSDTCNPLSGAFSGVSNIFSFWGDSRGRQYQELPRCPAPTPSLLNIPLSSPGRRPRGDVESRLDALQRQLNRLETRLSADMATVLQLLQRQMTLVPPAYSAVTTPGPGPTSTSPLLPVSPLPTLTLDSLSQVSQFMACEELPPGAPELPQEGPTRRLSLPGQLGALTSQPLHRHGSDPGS

A word on the IC50: it is the concentration that inhibits the measured activity by half. In data set [1], `C[C@H]1CN(C[C@H](Cc2ccccc2)C(=O)NCC(=O)O)CC[C@@]1(C)c1cccc(O)c1` [ADL 8-2698] yielded an IC50 of 794 µM. Take `O=C(O)c1ccc(-n2nc(-c3ccccc3O)nc2-c2ccccc2O)cc1` [CHEBI:49005]: the IC50 in data set [2] is 3980 µM.

For the origin of these results see BindingDB's records for doi:10.1016/j.vascn.2014.07.002 (University of Oxford, 2014).
